The values that follow come from patent US9198913B2, “Nitroimidazooxazines and their uses in anti-tubercular therapy” (priority 2009, dated 2015).

Converted amounts (≈) assume the structure as drawn.

Data set [1] can be described thus: Stability to mouse liver microsomes.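 Also: analyte quantified by LC-MS/MS as ratio to internal standard peak area, mean of duplicates, 60 min value expressed relative to the 0 min level (100%).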 The data set is classed as in vitro ADME. The note with it: 1 μM, 37° C., 60 min, CD-1 mouse liver microsomes. A general note: Liver microsomes are a subcellular fraction often used to study metabolism.
Data set [2] is described as follows: Stability to human liver microsomes.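 Also: parent compound quantified by LC-MS/MS against an internal standard, duplicates averaged, expressed relative to the 0 min sample taken as 100%.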 As to conditions: 1 μM, 37° C., 60 min, pooled human liver microsomes. The data set is classed as in vitro ADME.
Data set [3] in a line: In vivo pharmacokinetics in mice.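 As to all read-outs here: plasma and lung samples quantified by LC-MS/MS, dosing as a suspension in aqueous carboxymethylcellulose with Tween 80.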 As to conditions: CD-1 mice, oral, 40 mg/kg; for Cmax / half-life / Kp: mouse; for Cmax / half-life: in vivo, plasma; for half-life: read-out: t½ (h) plasma (converted); for Kp: lung/plasma, read-out: AUC ratio (lung/plasma).
Data set [4] can be described thus: Water solubility (sonicated suspension, HPLC).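 As to all read-outs here: concentration in the clear supernatant quantified by HPLC peak area against a DMSO standard solution of the same compound, corrected for dilution and injection volume.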 The data set is classed as physicochemical. As to conditions: in water; for solubility at 15 min: thermodynamic from solid.

For `O=[N+]([O-])c1cn2c(n1)OC[C@@H](OCc1cnn(-c3ccc(OC(F)(F)F)cc3)c1)C2` [Compound 27, (6S)-2-Nitro-6-({1-[4-(trifluoromethoxy)phenyl]-1H-pyrazol-4-yl}methoxy)-6,7-dihydro-5H-imidazo[2,1-b][1,3]oxazine], the melting point (usually the temperature, or range, at which the solid turns liquid) was in the range of 150 to 151 °C. Also, the “Microsomes (% remaining, 1 h) Mouse” value in data set [1] is on record as 64%. In data set [2], the “Microsomes (% remaining, 1 h) Human” value came out at 87%.
In turn, `O=[N+]([O-])c1cn2c(n1)OC[C@@H](OCc1ccn(-c3ccc(OC(F)(F)F)cc3)n1)C2` [Compound 10, (6S)-2-Nitro-6-({1-[4-(trifluoromethoxy)phenyl]-1H-pyrazol-3-yl}methoxy)-6,7-dihydro-5H-imidazo[2,1-b][1,3]oxazine] returned a melting point of 103 to 105 °C. Besides, in data set [3], the AUC lung stood at 31.5 µg·h/mL, the Cmax (usually the highest concentration seen after dosing) was determined as 1510 ng/mL, the half-life was 2.4 h and the Kp amounted to 3.5. Further, the “Microsomes (% remaining, 1 h) Mouse” value in data set [1] was determined as 67%. Also, the “Microsomes (% remaining, 1 h) Human” value in data set [2] was found to be 87%.
Consider `O=[N+]([O-])c1cn2c(n1)OC[C@@H](OCc1ccc(-c3ccc(F)cc3)nc1)C2` (hydrate or solvate) [Compound 5, (6S)-6-{[6-(4-Fluorophenyl)-3-pyridinyl]methoxy}-2-nitro-6,7-dihydro-5H-imidazo[2,1-b][1,3]oxazine], for which the melting point was in the range of 194 to 196 °C.
In the case of `O=[N+]([O-])c1cn2c(n1)OC[C@@H](OCc1ccc(-c3ccc(OC(F)(F)F)cc3)c(F)c1)C2` [Compound 15, (6S)-6-{[2-Fluoro-4′-(trifluoromethoxy)[1,1′-biphenyl]-4-yl]methoxy}-2-nitro-6,7-dihydro-5H-imidazo[2,1-b][1,3]oxazine], the melting point lay in the range of 181 to 183 °C. In addition, the solubility (commonly how much of the substance goes into solution per volume) at 15 min in data set [4] turned out to be 0.33 µg/mL (≈ 0.728 µM).
The compound `O=[N+]([O-])c1cn2c(n1)OC[C@@H](OCc1ccc(-c3ccc(C(F)(F)F)nc3)cc1)C2` [Compound 9, (6S)-2-Nitro-6-({4-[6-(trifluoromethyl)-3-pyridinyl]benzyl}oxy)-6,7-dihydro-5H-imidazo[2,1-b][1,3]oxazine] displayed a melting point of 221 to 222 °C. Further, in data set [3], the AUC lung is 414 µg·h/mL, the Cmax was found to be 13500 ng/mL and the Kp worked out at 1.9. For the same compound, the Solubility – broadly, how much of the substance goes into solution per volume – in data set [4] was 1.0 µg/mL (≈ 2.38 µM). Also, in data set [2], the “Microsomes (% remaining, 1 h) Human” value is reported as 86%.
In the case of `O=[N+]([O-])c1cn2c(n1)OC[C@@H](OCc1ccc(-c3ccc(F)cn3)cc1)C2` [Compound 26, (6S)-6-{[4-(5-Fluoro-2-pyridinyl)benzyl]oxy}-2-nitro-6,7-dihydro-5H-imidazo[2,1-b][1,3]oxazine], the melting point was 180 to 181 °C. In addition, in data set [1], the “Microsomes (% remaining, 1 h) Mouse” value amounted to 61%. Also, the Solubility in data set [4] was 67 µg/mL (≈ 181 µM). Besides, the “Microsomes (% remaining, 1 h) Human” value in data set [2] was 83%.
Regarding `O=[N+]([O-])c1cn2c(n1)OC[C@@H](OCc1ccc(C#Cc3ccc(OC(F)(F)F)cc3)cc1)C2` [Compound 32, (6S)-2-Nitro-6-[(4-{[4-(trifluoromethoxy)phenyl]ethynyl}benzyl)oxy]-6,7-dihydro-5H-imidazo[2,1-b][1,3]oxazine], the melting point was 233 to 236 °C.
Same read-out and setting: as for `O=[N+]([O-])c1cn2c(n1)OC[C@@H](OCc1ccc(C#Cc3ccc(OC(F)(F)F)cc3)nc1)C2` [Compound 33, (6S)-2-Nitro-6-[(6-{[4-(trifluoromethoxy)phenyl]ethynyl}-3-pyridinyl)methoxy]-6,7-dihydro-5H-imidazo[2,1-b][1,3]oxazine], the figure is 235 to 238 °C.
The compound `O=[N+]([O-])c1cn2c(n1)OC[C@@H](OCc1ccc(-c3ccc(OC(F)(F)F)cc3)cc1)C2` [Compound 3, (6S)-2-Nitro-6-{[4′-(trifluoromethoxy)[1,1′-biphenyl]-4-yl]methoxy}-6,7-dihydro-5H-imidazo[2,1-b][1,3]oxazine] showed a melting point of 199 to 201 °C. The compound further gave an AUC lung in data set [3] of 218 µg·h/mL.
`O=[N+]([O-])c1cn2c(n1)OC[C@@H](OCc1ccc(/C=C/c3ccc(OC(F)(F)F)cc3)cc1)C2` [Compound 31, (6S)-2-Nitro-6-[(4-{(E)-2-[4-(trifluoromethoxy)phenyl]ethenyl}benzyl)oxy]-6,7-dihydro-5H-imidazo[2,1-b][1,3]oxazine] showed a melting point of 228 to 230 °C. For the same compound, in data set [1], the “Microsomes (% remaining, 1 h) Mouse” value amounted to 98%. Besides, in data set [2], the “Microsomes (% remaining, 1 h) Human” value was 99%.
Regarding `O=[N+]([O-])c1cn2c(n1)OC[C@@H](OC/C=C/c1ccc(-c3ccc(OC(F)(F)F)cc3)cc1)C2` [Compound 19, (6S)-2-Nitro-6-({(2E)-3-[4′-(trifluoromethoxy)[1,1′-biphenyl]-4-yl]-2-propenyl}oxy)-6,7-dihydro-5H-imidazo[2,1-b][1,3]oxazine], the melting point is 220 to 221 °C. The “Microsomes (% remaining, 1 h) Mouse” value in data set [1] came out at 95%. Besides, in data set [4], the Solubility was 0.50 µg/mL (≈ 1.08 µM). The “Microsomes (% remaining, 1 h) Human” value in data set [2] came out at 100%.
Compound `O=[N+]([O-])c1cn2c(n1)OC[C@@H](OCc1cnc(-c3ccc(OC(F)(F)F)cc3)cn1)C2` [Compound 4, (6S)-2-Nitro-6-({5-[4-(trifluoromethoxy)phenyl]-2-pyrazinyl}methoxy)-6,7-dihydro-5H-imidazo[2,1-b][1,3]oxazine] had a melting point of 182 to 184 °C. This compound returned an AUC lung in data set [3] of over 324 µg·h/mL. Moreover, in data set [4], the Solubility turned out to be 2.6 µg/mL (≈ 5.95 µM). Also, in data set [2], the “Microsomes (% remaining, 1 h) Human” value turned out to be 98%.
On to `O=[N+]([O-])c1cn2c(n1)OC[C@@H](OCc1ccc(C#Cc3ccc(OC(F)(F)F)cc3)cn1)C2` [Compound 18, (6S)-2-Nitro-6-[(5-{[4-(trifluoromethoxy)phenyl]ethynyl}-2-pyridinyl)methoxy]-6,7-dihydro-5H-imidazo[2,1-b][1,3]oxazine], for which the melting point is 207 to 208 °C. In addition, in data set [3], the AUC lung worked out at 235 µg·h/mL, the peak concentration (Cmax) is 2360 ng/mL, the half-life is 23.5 h and the Kp worked out at 2.5. In data set [4], this compound came in with a solubility at 15 min of 0.36 µg/mL (≈ 0.782 µM).
On to `O=[N+]([O-])c1cn2c(n1)OC[C@@H](OCc1ccc(-c3ccc(OC(F)(F)F)c(F)c3)nc1)C2` [Compound 21, (6S)-6-({6-[3-Fluoro-4-(trifluoromethoxy)phenyl]-3-pyridinyl}methoxy)-2-nitro-6,7-dihydro-5H-imidazo[2,1-b][1,3]oxazine], for which, in data set [3], the AUC lung amounted to 251 µg·h/mL, the half-life was 13.9 h and the Kp amounted to 1.4. For the same compound, the “Microsomes (% remaining, 1 h) Mouse” value in data set [1] worked out at 90%. The Solubility in data set [4] was found to be 3.0 µg/mL (≈ 6.6 µM). The “Microsomes (% remaining, 1 h) Human” value in data set [2] is reported as 100%.
Compound `O=[N+]([O-])c1cn2c(n1)OC[C@@H](Oc1ccc(-c3ccc(OC(F)(F)F)cc3)cc1)C2` [Compound 13, (6S)-2-Nitro-6-{[4′-(trifluoromethoxy)[1,1′-biphenyl]-4-yl]oxy}-6,7-dihydro-5H-imidazo[2,1-b][1,3]oxazine] returned a melting point of 210 °C. Moreover, in data set [3], the AUC lung was 347 µg·h/mL, the half-life is 38 h and the Kp was 3.4. The compound further had a solubility at 15 min in data set [4] of 3 µg/mL (≈ 7.12 µM).
Compound `O=[N+]([O-])c1cn2c(n1)OC[C@@H](OCc1ccc(C#Cc3ccc(C(F)(F)F)nc3)cn1)C2` [Compound 25, (6S)-2-Nitro-6-[(5-{[6-(trifluoromethyl)-3-pyridinyl]ethynyl}-2-pyridinyl)methoxy]-6,7-dihydro-5H-imidazo[2,1-b][1,3]oxazine] came in with a melting point of 226 to 227 °C. Further, the “Microsomes (% remaining, 1 h) Mouse” value in data set [1] worked out at 91%. The “Microsomes (% remaining, 1 h) Human” value in data set [2] is given as 88%.
Turning to `O=[N+]([O-])c1cn2c(n1)OC[C@@H](OCc1ccc(-c3ccc(OC(F)(F)F)cc3)cn1)C2` [Compound 7, (6S)-2-Nitro-6-({5-[4-(trifluoromethoxy)phenyl]-2-pyridinyl}methoxy)-6,7-dihydro-5H-imidazo[2,1-b][1,3]oxazine], the melting point was 157 to 159 °C. In data set [3], the AUC lung was 427 µg·h/mL and the Cmax came to 25900 ng/mL.
For `O=[N+]([O-])c1cn2c(n1)OC[C@@H](OCc1ccc(Cc3ccc(OC(F)(F)F)cc3)cc1)C2` [Compound 17, (6S)-2-Nitro-6-({4-[4-(trifluoromethoxy)benzyl]benzyl}oxy)-6,7-dihydro-5H-imidazo[2,1-b][1,3]oxazine], the melting point was in the range of 132 to 133 °C. The “Microsomes (% remaining, 1 h) Mouse” value in data set [1] is 70%. This compound also yielded a solubility at 15 min in data set [4] of 0.16 µg/mL (≈ 0.356 µM). Also, in data set [2], the “Microsomes (% remaining, 1 h) Human” value is 85%.
Turning to `O=[N+]([O-])c1cn2c(n1)OC[C@@H](OCc1ccc(-c3ccc(OC(F)(F)F)cc3)nc1)C2` [Compound 6, (6S)-2-Nitro-6-({6-[4-(trifluoromethoxy)phenyl]-3-pyridinyl}methoxy)-6,7-dihydro-5H-imidazo[2,1-b][1,3]oxazine], in data set [3], the AUC lung worked out at 81 µg·h/mL and the concentration peaked (Cmax) at 12200 ng/mL. In addition, the “Microsomes (% remaining, 1 h) Mouse” value in data set [1] was 87%. Also, the Solubility in data set [4] was 2.3 µg/mL (≈ 5.27 µM). The “Microsomes (% remaining, 1 h) Human” value in data set [2] turned out to be 83%.
In turn, `O=[N+]([O-])c1cn2c(n1)OC[C@@H](OCc1ccc(-c3ccc(F)cc3)nc1)C2` [Compound 5, (6S)-6-{[6-(4-Fluorophenyl)-3-pyridinyl]methoxy}-2-nitro-6,7-dihydro-5H-imidazo[2,1-b][1,3]oxazine] displayed an AUC lung in data set [3] of 136 µg·h/mL. In data set [1], the “Microsomes (% remaining, 1 h) Mouse” value is 80%. This compound came in with a Solubility in data set [4] of 3.8 µg/mL (≈ 10.3 µM). Besides, the “Microsomes (% remaining, 1 h) Human” value in data set [2] stood at 88%.
